The text below walks through data of patent US11400160B2, “Multifunctional conjugates” (E.P.O.S IASIS Research and Development Limited, priority 2017, dated 2022).

Usually IC50 stands for the concentration at which inhibition is half-maximal. In general, EC50 refers to the concentration needed to bring the measured effect to its halfway point.

Like-named read-outs stand apart in the source and are kept apart here.

The test system of one test is Balb/c Nu/Nu mice. Kind of test: Intratibial injection of compounds, micro-CT trabecular bone volume. In kind it is in vivo. The conditions noted are these: 10 μl into tibial marrow space, 3 weeks, μCT; compared to the maternal BP compound; preliminary data; FIG. 8. As to the method:
Four week old female Balb/c Nu/Nu mice were housed under pathogen free conditions, in accordance with the guidelines approved by the Institute of Medical and Veterinary Science animal ethics research committee. Mice were randomly assigned into 3 groups of 4 animals. The left tibia was wiped with 70% ethanol and a 26 gauge needle coupled to a Hamilton syringe, was inserted through the tibial plateau with the knee flexed and 10 μl of each drug injected into the marrow space. Mice were humanely killed 3 weeks post drug administration and bone morphometric parameters were assessed using high resolution micro-CT and histology.
• Group 1: Bpp(OEt) (BP) (20 μM) • Group 2: γ-Tocotrienol (20 μM) • Group 3: γ-Tocotrienol-BP conjugate (20 μM) Micro-Computer Tomography Analysis
Both the right and left tibiae of each animal were mounted in the CT specimen tube and placed securely into the SkyScan-1072 X-ray micro-CT Scanner (Aartselaar, Belgium). The program was commenced with magnification set to give scan slices of 5.2 microns. Three-dimensional (3D) images were generated using Cone-Beam reconstruction and 3D visualisation (Skyscan). Using the two dimensional (2D) images obtained from the micro-CT scan, the growth plate was identified and 750 sections, starting from the growth plate/tibial interface and moving down the tibia, were selected. […]

The subject of another test is MDA-MB231TXSA cells. The experiment in a line: Cell viability, crystal violet colorimetric assay. The format is cell-based. The conditions noted are these: 72 hrs; for IC50: tested at 0.02-0.1 mM, read-out: IC50 values MB231-TXSA. How it is done:
(§1) Immortalised osteolytic metastatic breast cancer cell lines, a) hormone-dependent MCF-7 and b) hormone refractory MDA-MB231, together with the daughter line MDA-MB231TXSA were incubated with 5 gradual concentrations of compounds of the invention as described below. Cell viability was assessed with the crystal violet colorimetric assay and IC50s were evaluated.
(§2) Medium was removed from cell cultures and cells were fixed with 4% v/v formaldehyde for 5 mins at room temperature. Formalin was then removed and CV added for 10 mins at room temperature followed by several washes with dsH2O. Samples were allowed to dry overnight. The following day, 10% acetic acid was added for 15 mins and optical density at 620 nm was measured. Optical densities versus compound concentrations were plotted in graphs and IC50s estimated by linear regression analysis using the WorkOut (VictorX4) software.
(§3) MCF-7, MDA-MB231 and MDA-MB231TXSA cells were seeded in 96-well-plates and allowed to attach overnight. The following day media were replaced with fresh media containing the following compounds: Both free tetraethyl methylbisphosphonate (bpp(OEt)) and bpp(OEt) in 1:1 combination with the free chromanol and the biphosphonate conjugates were tested at 5 gradual concentrations of: 0.02, 0.04, 0.06, 0.08 and 0.1 mM.
(§4) Cells were cultured in the presence of the compounds for 72 hrs and viability was assessed on day 3 by crystal violet assay. The cell lines were selected for their high bone metastatic potential. The fluorescently transfected line MB231TXSA, derived from line MB231 is also used in animal studies (WP7).

Another test concerns MDA-MB231 cells. The experiment in a line: Cell viability, crystal violet colorimetric assay. The following applies: 72 hrs; for IC50: tested at 0.02-0.1 mM. The format is cell-based. As to the method:
as §1, §2, §3, §4

Test [1] concerns mature osteoclasts isolated from human Giant Cell Tumours (GCT) of bone. The experiment in a line: Bone resorption by mature osteoclasts from Giant Cell Tumours of bone. The format is cell-based. The following applies: osteoclasts from human GCT of bone on whale dentine, 5 days. From the text: (§5) Human peripheral blood mononuclear cells (PBMCs) and the RAW264.7 murine monocytic cell line were differentiated into osteoclast-like cells in the presence of RANKL plus M-CSF and have been used as model systems of osteoclastogenesis. Osteoclast-like cells, from Giant Cell Tumours (GCT) of bone specimens from three independent donors were used to investigate the effect of compounds of the invention on the bone resorbing activity of mature osteoclasts.
To determine the effect of compounds of the invention on bone resorbing activity of mature osteoclast, cultured cells isolated from primary human Giant Cell Tumours of bone specimens were used. These cells were plated on whale dentine slices in 96-well plates at a density of 1×10^5/well and treated for 5 days with increasing concentrations of compounds of the invention. Medium and treatments were replaced on day three and pit formation determined on day 5.
Whale dentine slices will be washed in extran, rinsed with distilled water, washed in 70% ethanol and dried overnight. […] Images will be analysed using ImageQuant software and the area of resorption determined for each dentine slice (quadruplicate dentine slices for each treatment). Results are expected to be average resorption area +/− standard errors of the mean (SEM) and the significant differences between treatments will be determined using Students t-tests (2-tailed, unpaired).

A short description of test [2]: Binding to pre-loaded bone slices / hydroxyapatite after washing. The conditions noted are these: pre-loaded whale dentine or osteologic slides, unbound drug washed away. From the text: (§6) In a separate experiment, pre-loaded bone slices (whale dentine) or commercial forms of hydroxyapatite (osteologic slides) with either free γ-tocopherol (γToc) or γ-tocopherol-bpp(OEt) (BP-γToc) and then washed away unbound drug.

The subject of test [3] is primary human osteoblast cultures. Kind of test: Osteoblast mineralization (alizarin red, calcium in cell layer). The format is cell-based. The conditions noted are these: up to 15 days, osteo-inductive conditions; compared to free BP; alizarin red and calcium; FIG. 6. How it is done: The effect of free γToc and BP-γToc treatment on osteoblast function, using mineralized bone nodule-forming primary human osteoblast cultures was investigated.
Osteoblasts harvested from human donors at the time of joint replacement surgery were cultured up to 15 days in serum-containing medium under osteo-inductive conditions.

The test system of test [4] is osteoclasts from RAW264.7 and Human PBMC. Kind of test: Resorption on pre-loaded whale dentine / osteologic slides (pit formation). The format is cell-based, murine. The conditions noted are these: for effect on differentiation and activity of osteoclasts: summary statement.
Excerpt: Zoledronic acid was used as control.
as §5
Human PBMCs were isolated from normal healthy donors isolated from the buffy coats acquired from the local Red Cross Blood Service. The cells were diluted in Hanks Balanced Salt Solution (HBSS) and separated by gradient centrifugation with Lymphoprep™. Isolated cells were resuspended in α MOD, 10% FCS, L-glutamine (2 mM), Hepes (20 mM), supplemented with M-CSF (25 ng/ml), 1α,25(OH)2 vitamin D3 (10 nM) and dexamethasone (10 nM) and plated into 96-well plates containing whale dentine slices, for the bone resorption assay or directly into wells for TRAP staining. The following day, media were removed and replaced with media as above, supplemented with RANKL (100 ng/ml) in the presence or absence of increasing concentrations of compounds of the invention. Medium and treatments were replaced every three days.
Cells were cultured in 96-well plates at a density of 1×10^4 cells/well in DMEM medium with 10% FCS, L-glutamine (2 mM) and Hepes (20 mM). Cells were allowed to attach for 4 hrs before treatment with RANKL (50 ng/ml) in the presence or absence of increasing concentrations of compounds of the invention as above. Medium and treatments were replaced on day three and TRAP activity determined on day 5. The overall number of viable cells were determined by crystal violet staining.
Whale dentine slices will be washed in extran, rinsed with distilled water, washed in 70% ethanol and dried overnight. The dentine slices mounted on stubs, carbon-coated and visualised on a Philips XL-20 scanning electron microscope, (SEM) as previously described. Images will be analysed using ImageQuant software and the area of resorption determined for each dentine slice (quadruplicate dentine slices for each treatment). Results are expected to be average resorption area +/− standard errors of the mean (SEM) and the significant differences between treatments will be determined using Students t-tests (2-tailed, unpaired).
as §6

As for `Cc1c(O)cc2c(c1C)O[C@](C)(CCC[C@H](C)CCC[C@H](C)CCCC(C)C)CC2` [γ-toc, γ-tocopherol, reference compound], the “trabecular bone volume at the site of injection” value in the test with Balb/c Nu/Nu mice is listed as “significant increase in trabecular bone volume”. Also, the IC50 with MDA-MB231TXSA cells (Exp.1) is 97.4 µM; with MDA-MB231TXSA cells (Exp.2, unstarred values) it was 233 µM; in the test with MDA-MB231 cells (Exp.2), 55.7 µM. The EC50 with MDA-MB231 cells (Exp.1, * denotes EC50 value, read-out: EC50 value (starred) MB231) is 312 µM. Also, in test [1], the “bone resorption by already mature osteoclasts” value is reported as “inhibited bone resorption”. Besides, the “binding to bone substrate / bone mineral” value in test [2] is given as “not”. Also, the “matrix-containing mineralized nodules in osteoblast cultures” value in test [3] was “progressively increased matrix-containing mineralized nodules”. In addition, the “effect on differentiation and activity of osteoclasts” value in test [4] was “inhibitory effect on the differentiation and activity of osteoclasts”.

For the molecule `CCOP(=O)(OCC)C(CCC(=O)Oc1cc2c(c(C)c1C)OC(C)(CCCC(C)CCCC(C)CCCC(C)C)CC2)P(=O)(OCC)OCC` (stereo not shown) [γ-toc-bpp(OEt), γ-tocopheryl bisphosphonic ester], in the test on Balb/c Nu/Nu mice, the “trabecular bone volume at the site of injection” value is on record as “significant increase in trabecular bone volume”. Moreover, the IC50 came to 79.3 µM in the test with MDA-MB231TXSA cells (Exp.1); 124 µM in the test on MDA-MB231 cells (Exp.1, unstarred values); 49.7 µM in the test with MDA-MB231 cells (Exp.2). For the same molecule, the EC50 in the test on MDA-MB231TXSA cells (Exp.2, * denotes EC50 value, read-out: EC50 value (starred) MB231-TXSA) turned out to be 189 µM. For the same molecule, the “bone resorption by already mature osteoclasts” value in test [1] is given as “inhibited bone resorption”. Besides, in test [2], the “binding to bone substrate / bone mineral” value was “selectively bound the substrate”. The “matrix-containing mineralized nodules in osteoblast cultures” value in test [3] was “progressively increased matrix-containing mineralized nodules”. For the same molecule, the “inhibition of resorption on pre-loaded substrate” value in test [4] (pre-loaded, washed, zoledronic acid as control, FIG. 5) is listed as “inhibited resorption to an extent comparable with that seen with zoledronic acid”. In addition, the “effect on differentiation and activity of osteoclasts” value in test [4] is “retains the inhibitory activity on osteoclast differentiation and bone resorption”.
